Tests used:
[1] = test system: TSH1; assay: MTT cytotoxicity assay, TSH1; assay type: cell-based; settings: TSH1, 72 h
Protocol: (§1) All cell lines were obtained from the American Type Culture Collection (ATCC) and cultured in the specified medium supplemented with 10% fetal bovine serum, 100 IU/mL penicillin, and 100 μg/mL streptomycin at 37°C in a humidified 5% CO2/95% air incubator. Synthesis of new compounds is described in S1 File, and >95% purity of RA475, Up284 and its analogs were confirmed by NMR and MS. To assess drug cytotoxicity, cells were seeded at 2,500 cells/well (10,000 cells/well for MM lines) in 100 μL medium in 96-well plate as triplicates and after 24 h treated with compounds for a further 72 h. To assess cytotoxicity, the cells were incubated for 2 h at 37°C according to the manufacturer’s protocol with the Thiazolyl Blue Tetrazolium Bromide (20 μL/well of 5 mg/mL stock solution in water) (Sigma, M5655) and A570 measured using a Benchmark Plus microplate spectrophotometer (BIO-RAD). IC50 was estimated using Graphpad Prism 7 software.

[2] = test system: HCC1806; assay: MTT cytotoxicity assay, HCC1806; assay type: cell-based; settings: Homo sapiens, HCC1806, 72 h
Protocol: as §1

[3] = test system: high molecular weight polyubiquitinated proteins in OVCAR3 cells; assay: Anti-ubiquitin immunoblot, OVCAR3; assay type: cell-based, human; settings: Up284 0.5 μM, bortezomib 0.25 μM, ixazomib 0.25 μM, RA475 0.5 or 1 μM
Text: Cell lysate prepared in MPER (Pierce) from each sample was normalized by total protein concentration using the bicinchoninic acid assay and bovine serum albumin standards. Normalized samples were subjected to SDS-PAGE, transferred to PVDF membranes and analyzed by Western blot using antibodies specific to ubiquitin (P4D1, sc-8017, Santa Cruz), PARP (#9542, […]), actin (#66009, Protein Tech Group), Tubulin(#66031, Protein Tech Group), ADRM1/RPN13 (D9Z1U, #12019, Cell Signaling), USP14 (Cell Signal, # 8159), Annexin V (#559763, BD Pharmingen), and for secondary antibodies we utilized either horseradish peroxidase (HRP)-linked anti-mouse IgG or anti-rabbit IgG (GE Healthcare UK Ltd), HRP-linked streptavidin (N100, Thermo Fisher) at the recommended dilution (1:5000).
Accumulation of high molecular weight polyubiquitinated proteins (polyUb) is a classical phenomenon of proteasome function inhibition due to the stabilization of its substrate.
Fig 3 Impact of RA475 on proteasome function. […] Actin was used as loading control. […] C) 4T1 and HCC1806 cells stably expressing 4UbFL were treated with compounds at indicated doses for 4 h and imaged by IVIS200 after the addition of luciferin substrate (50 μL, 7mg/mL in PBS). D) Sub-confluent cultures of ES2 cells stably expressing 4UbFL were seeded at 10,000 cells/well in 96-well microtiter plates. At 18 h post transfection, cells were treated with compounds or vehicle (DMSO) at the doses indicated. After a 4 h incubation, the cells were lysed and the luciferase activity in each cell lysate was determined with a luciferase assay kit (Promega) according to the manufacturer’s instructions. Bioluminescence was measured by using a luminometer (Glomax Multidetection system, Promega) E) A patch was shaved of hair on one leg of CD-1 mice, and 10 μg 4UbFL plasmid in 20 μL of PBS was injected into the quadriceps femoralis muscle followed immediately by injection of the 2 Needle Array to 5 mm depth encompassing the injection site and square wave electroporation (ElectroSquarePorator 833, BTX-2 Needle array 5mm gap, Harvard apparatus) delivered as eight pulses at 106V for 20 ms with 200 ms intervals. One day post electroporation, mice were anesthetized with isoflurane, injected IP with luciferin (0.3 mg in 100 μL water) and optical imaging was performed to determine basal level luciferase expression. Images were acquired for 10 min with a Xenogen IVIS 200 (Caliper, Hopkinton, MA). Equally sized areas were analyzed using Living Image 2.20 software. Mice were imaged weekly during treatment. […]

[4] = test system: SUM149; assay: MTT cytotoxicity assay, SUM149; assay type: cell-based; settings: SUM149, 72 h
Protocol: as §1

[5] = test system: ID8VegF; assay: MTT cytotoxicity assay, ID8VegF; assay type: cell-based; settings: 72 h
Protocol: as §1

[6] = test system: ES2; assay: MTT cytotoxicity assay, ES2; assay type: cell-based; settings: Homo sapiens, ES-2, ES2, 72 h
Protocol: as §1

[7] = test system: HeLa; assay: MTT cytotoxicity assay, HeLa; assay type: cell-based; settings: Homo sapiens, 72 h
Protocol: as §1

[8] = Tissue distribution in CD1 mice; assay type: in vivo, mouse; settings: 24 h; for Concentration in brain: one IV dose 40 mg/kg
Protocol: For the stability studies and biodistribution studies, plasma or tissue homogenate (20 μL) was extracted with 100 μL of acetonitrile containing the internal standard RA413S (a structural analogue) at 10 ng/mL. Tissue homogenates were prepared at a concentration of 200 mg/mL in PBS. After vortex-mixing and centrifuging for 5 min at 2500 xg, 10 μL of the supernatant was injected into LC-MS/MS system. […] Mobile phase A was water containing 0.1% formic acid, and mobile phase B was acetonitrile containing 0.1% formic acid. The gradient started with mobile phase B at 20% and was held at 20% for 0.5 minutes with a flow rate of 0.3 mL/min, then increased to 100% over 0.5 minutes and held for 2.0 minutes, and finally returned back to 20% mobile phase B and allowed to equilibrate until 4.1minutes. An AB Sciex 5500 triple quadrupole mass spectrometer operated in positive electrospray ionization mode was used for the detection of RA475. The lower limit of quantitation (LLOQ) in plasma was 10 ng/mL.
In a separate experiment to assess drug distribution, CD1 mice were injected with one dose of RA475 (40 mg/kg, IV) and tissues collected after 4 h and 24 h. RA475 levels were analyzed in all major tissues (brain, colon, heart, kidney, liver, lung and spleen) by LC-MS/MS.
Fig 5 Tissue distribution of RA475 and Up284 in mice. Female CD1 mice (n = 3/drug) were treated with one IV dose of A) RA475 (40mg/kg) or B) Up284 (40mg/Kg) and euthanized after 24 h with collection of plasma and tissues including brain, colon, heart, kidney, liver, lung and spleen. RA475 and Up284 concentrations in tissue samples were analyzed by LC-MS/MS. TEXT PRINTED IN THE PICTURE: (A) RA475: RA475 Concentration (ng/mL or ng/g): 161 (Brain) | (B) Up284: Up284 Concentration (ng/mL or ng/g): 9214 (Brain)

[9] = test system: PACS; assay: MTT cytotoxicity assay, PACS; assay type: cell-based; settings: 72 h
Protocol: as §1

In the case of `N#Cc1ccc(/C=C2/C(=O)/C(=C/c3ccc(C#N)cc3)C23CCNCC3)cc1` [Up284, reference compound], the IC50 [1] is reported as 70 nM, the IC50 [2] is reported as 140 nM and the “forms of polyUb induced” value [3] is reported as “induced forms of polyUb that did not run into the gel”. For the same compound, the IC50 [4] was 90 nM, the IC50 [5] was 200 nM and the IC50 [6] was 125 nM. For the same compound, the IC50 [7] was 40 nM, the Concentration in brain [8] was 9214 ng/mL or ng/g and the IC50 [9] was 125 nM.

For `Cl.Cl.N#Cc1ccc(/C=C2/C(=O)/C(=C/c3ccc(C#N)cc3)C23CCN(C(=N)N)CC3)cc1` [RA475, 1,3-bis((E)-4-cyanobenzylidene)-2-oxo-7-azaspiro[3.5]nonane-7-carboximidamide dihydrochloride], the IC50 [1] was 114 nM, the IC50 [2] was 113 nM and the “forms of polyUb induced” value [3] was “induced forms of polyUb that did not run into the gel”. For the same compound, the IC50 [4] was 100 nM, the IC50 [5] was 1820 nM and the IC50 [6] was 160 nM. The IC50 [7] was 213 nM, the tissue accumulation ([8]; 40 mg/kg IV) was “accumulated primarily in kidneys and liver” and the Concentration in brain [8] was 161 ng/mL or ng/g. It also gave an IC50 [9] of 581 nM.
